Results taken from patent US20260028365A1 (BIOGEN MA INC., priority 2022, published 2026).

target: JH2 domain of human Tyk2 (Homo sapiens (Human), UniProt P29597); experiment: JH2 Biochemical Assay (TR-FRET probe displacement); assay type: binding; conditions: JH2 domain of human Tyk2, TR-FRET probe displacement
Experimental: The inhibitory potency of compounds of the disclosure against the kinase activity of recombinantly generated JH2 domain of human Tyk2 was evaluated in a plate-based assay using a TR-FRET assay platform. Briefly, 2 nM of recombinant JH2 domain [10×His-tagged TYK2 JH2 domain (amino acid 575-876)] was combined with 2 nM probe ((S)-6-amino-9-(2-carboxy-4-((1-(3-(8-methyl-5-(methylamino)-8H-imidazo[4,5-d]thiazolo[5,4-b]pyridin-2-yl)phenyl)ethyl)carbamoyl)phenyl)-3-iminio-5-sulfo-3H-xanthene-4-sulfonate), 0.1 nM Tb-labeled anti-His antibody, and compounds of disclosure for 60 minutes. Compounds are tested at either 10 μM or 1 μM top concentration, 10 points of 3-fold dilution. The TR-FRET signal inversely correlates to the amount of probe displaced by compounds and signal was calculated by taking the ratio of fluorescence at 520 nm and 495 nm. The data was normalized and the percent activity versus log concentration of compound was fitted with a 4-parameter logistic model to generate IC50 curves.

Sequence of JH2 domain of human Tyk2 (P29597 575-876): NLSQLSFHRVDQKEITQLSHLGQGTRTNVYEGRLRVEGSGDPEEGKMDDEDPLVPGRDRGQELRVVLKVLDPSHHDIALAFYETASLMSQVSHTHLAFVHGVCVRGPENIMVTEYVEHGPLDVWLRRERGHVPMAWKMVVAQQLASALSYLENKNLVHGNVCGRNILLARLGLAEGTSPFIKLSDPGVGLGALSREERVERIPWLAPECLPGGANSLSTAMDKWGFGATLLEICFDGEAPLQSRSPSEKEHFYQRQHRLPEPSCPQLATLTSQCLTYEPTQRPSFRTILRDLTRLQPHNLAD

For `COc1cc(C(F)(F)F)nc(Nc2cc(NC(C)=O)ncc2OC)n1` [Example 438, N-(5-methoxy-4-((4-methoxy-6-(trifluoromethyl)pyrimidin-2-yl)amino)pyridin-2-yl)acetamide], which IC50 is on record?
Its IC50 is 100 to 1000 nM.

How did the IC50 turn out when `CC(=O)Nc1cc(Nc2cc(C)nc(C(C)(F)F)n2)c(-c2nc(C)ns2)cn1` [Example 618, N-(4-((2-(1,1-difluoroethyl)-6-methylpyrimidin-4-yl)amino)-5-(3-methyl-1,2,4-thiadiazol-5-yl)pyridin-2-yl)acetamide] was run?
The IC50 was at most 10 nM.

`CC(=O)Nc1cc(Nc2ccnc(C(C)(F)F)n2)c(-n2cc(C#N)cn2)cn1` [Example 732, N-(5-(4-cyanO1H-pyrazol-1-yl)-4-((2-(1,1-difluoroethyl)pyrimidin-4-yl)amino)pyridin-2-yl)acetamide] was tested. Which IC50 did it give?
Its IC50 is 10 to 100 nM.

With `COc1cnc(NC(C)=O)cc1Nc1cc(OC2CC2)nc(C(F)(F)F)n1` [Example 437, N-(4-((6-cyclopropoxy-2-(trifluoromethyl)pyrimidin-4-yl)amino)-5-methoxypyridin-2-yl)acetamide] as the molecule, how does the IC50 read?
Its IC50 is 10 to 100 nM.

`COc1cnc(NC(C)=O)cc1Nc1cc(-c2cc(C)c3nc(C)nn3c2)nc(C(C)(F)F)n1` [Example 397, N-(4-((2-(1,1-difluoroethyl)-6-(2,8-dimethyl-[1,2,4]triazolo[1,5-a]pyridin-6-yl)pyrimidin-4-yl)amino)-5-methoxypyridin-2-yl)acetamide] was tested. Which IC50 did it give?
The IC50 was at most 10 nM.

For `COc1cnc(NC(C)=O)cc1Nc1cc(-c2cc(C)c3nc(C)cn3c2)nc(C(C)(F)F)n1` [Example 403, N-(4-((2-(1,1-difluoroethyl)-6-(2,8-dimethylimidazo[1,2-a]pyridin-6-yl)pyrimidin-4-yl)amino)-5-methoxypyridin-2-yl)acetamide], which IC50 is on record?
Its IC50 is at most 10 nM.

How did the IC50 turn out when `COc1ccc(-c2cnc(NC(C)=O)cc2Nc2cc(C)nc(C(C)(F)F)n2)nc1F` [Example 622, N-(4′-((2-(1,1-difluoroethyl)-6-methylpyrimidin-4-yl)amino)-6-fluorO5-methoxy-[2,3′-bipyridin]-6′-yl)acetamide] was run?
The IC50 was at most 10 nM.

For `CC(=O)Nc1cc(Nc2cc(C)nc(C(C)(F)F)n2)c(-c2cc(CN3CCOCC3)n(C)n2)cn1` [Example 739, N-(4-((2-(1,1-difluoroethyl)-6-methylpyrimidin-4-yl)amino)-5-(1-methyl-5-(morpholinomethyl)-1H-pyrazol-3-yl)pyridin-2-yl)acetamide], which IC50 is on record?
The IC50 was at most 10 nM.

Which IC50 does the source give for `CC(=O)Nc1cc(Nc2ccnc(C(C)(F)F)n2)c(-n2cnc(C)n2)cn1` [Example 734, N-(4-((2-(1,1-difluoroethyl)pyrimidin-4-yl)amino)-5-(3-methyl-1H-1,2,4-triazol-1-yl)pyridin-2-yl)acetamide] here?
Its IC50 is 100 to 1000 nM.

With `CC(=O)Nc1cc(Nc2cc(C)nc(C(C)(F)F)n2)c(N(C)C)cn1` [Example 725, N-(4-((2-(1,1-difluoroethyl)-6-methylpyrimidin-4-yl)amino)-5-(dimethylamino)pyridin-2-yl)acetamide] as the molecule, how does the IC50 read?
Its IC50 is 100 to 1000 nM.

How did the IC50 turn out when `COc1nc(C)cc(Nc2cc(NC(C)=O)ncc2OC)n1` [Example 452, N-(5-methoxy-4-((2-methoxy-6-methylpyrimidin-4-yl)amino)pyridin-2-yl)acetamide] was run?
Its IC50 is 10 to 100 nM.

Which IC50 does the source give for `CC(=O)Nc1cc(Nc2ccnc(C(C)(F)F)n2)c(-c2nnc(C3CC3)o2)cn1` [Example 717, N-(5-(5-cyclopropyl-1,3,4-oxadiazol-2-yl)-4-((2-(1,1-difluoroethyl)pyrimidin-4-yl)amino)pyridin-2-yl)acetamide] here?
Its IC50 is at most 10 nM.

same assay, conditions: TR-FRET probe displacement, JH2 domain

How did the IC50 turn out when `CC(=O)Nc1cc(Nc2cc(C)nc(C(C)(F)F)n2)c(-c2cc(CN3CCOCC3)ccn2)cn1` [Example 806, N-(4′-((2-(1,1-difluoroethyl)-6-methylpyrimidin-4-yl)amino)-4-(morpholinomethyl)-[2,3′-bipyridin]-6′-yl)acetamide] was run?
The IC50 was at most 10 nM.

`CC(=O)Nc1cc(Nc2cc(C)nc(C(C)(F)F)n2)c(-c2nc(CN3CCN(C)CC3)cs2)cn1` [Example 785, N-(4-((2-(1,1-difluoroethyl)-6-methylpyrimidin-4-yl)amino)-5-(4-((4-methylpiperazin-1-yl)methyl)thiazol-2-yl)pyridin-2-yl)acetamide] was tested. Which IC50 did it give?
Its IC50 is at most 10 nM.

How did the IC50 turn out when `COCCOc1cc(Nc2ccnc(NC(C)=O)c2)nc(C(C)(F)F)n1` [Example 809, N-(4-((2-(1,1-difluoroethyl)-6-(2-methoxyethoxy)pyrimidin-4-yl)amino)pyridin-2-yl)acetamide] was run?
The IC50 was 10 to 100 nM.

With `CC(=O)Nc1cc(Nc2cccc(C(C)(F)F)n2)c(-c2ccc3c(n2)OCC(C)(C)O3)cn1` [Example 820, N-(4-((6-(1,1-difluoroethyl)pyridin-2-yl)amino)-5-(2,2-dimethyl-2,3-dihydro-[1,4]dioxino[2,3-b]pyridin-6-yl)pyridin-2-yl)acetamide] as the molecule, how does the IC50 read?
Its IC50 is at most 10 nM.

`CC(=O)Nc1cc(Nc2cc(C)nc(C34COC(C3)C4)n2)c(-c2ccc(F)cn2)cn1` [Example 752, N-(4′-((2-(2-oxabicyclo[2.1.1]hexan-4-yl)-6-methylpyrimidin-4-yl)amino)-5-fluorO[2,3′-bipyridin]-6′-yl)acetamide] was tested. Which IC50 did it give?
The IC50 was at most 10 nM.

same assay, conditions: TR-FRET probe displacement, JH2 domain of human Tyk2

Which IC50 does the source give for `CC(=O)Nc1cc(Nc2cc(C)nc(C(C)(F)F)n2)c(-c2cc(N3CCN(C)CC3)ncn2)cn1` [Example 248, N-(4-((2-(1,1-difluoroethyl)-6-methylpyrimidin-4-yl)amino)-5-(6-(4-methylpiperazin-1-yl)pyrimidin-4-yl)pyridin-2-yl)acetamide] here?
Its IC50 is 10 to 100 nM.

`CC(=O)Nc1cc(Nc2cc(C)nc(C(C)(F)F)n2)c(-c2cc(C(C)(C)C#N)ncn2)cn1` [Example 241, N-(5-(6-(2-cyanopropan-2-yl)pyrimidin-4-yl)-4-((2-(1,1-difluoroethyl)-6-methylpyrimidin-4-yl)amino)pyridin-2-yl)acetamide] was tested. Which IC50 did it give?
The IC50 was 100 to 1000 nM.

`CC(=O)Nc1cc(Nc2cc(C)nc(C(C)(F)F)n2)c(CCCN(C)C)cn1` [Example 151, N-(4-((2-(1,1-difluoroethyl)-6-methylpyrimidin-4-yl)amino)-5-(3-(dimethylamino)propyl)pyridin-2-yl)acetamide] was tested. Which IC50 did it give?
The IC50 was 100 to 1000 nM.

target: Tyk2 (Homo sapiens (Human), UniProt P29597); experiment: pSTAT4 Cell Assay (MSD, NK92 cells); assay type: cell-based; conditions: not given
Sequence (P29597 whole entry): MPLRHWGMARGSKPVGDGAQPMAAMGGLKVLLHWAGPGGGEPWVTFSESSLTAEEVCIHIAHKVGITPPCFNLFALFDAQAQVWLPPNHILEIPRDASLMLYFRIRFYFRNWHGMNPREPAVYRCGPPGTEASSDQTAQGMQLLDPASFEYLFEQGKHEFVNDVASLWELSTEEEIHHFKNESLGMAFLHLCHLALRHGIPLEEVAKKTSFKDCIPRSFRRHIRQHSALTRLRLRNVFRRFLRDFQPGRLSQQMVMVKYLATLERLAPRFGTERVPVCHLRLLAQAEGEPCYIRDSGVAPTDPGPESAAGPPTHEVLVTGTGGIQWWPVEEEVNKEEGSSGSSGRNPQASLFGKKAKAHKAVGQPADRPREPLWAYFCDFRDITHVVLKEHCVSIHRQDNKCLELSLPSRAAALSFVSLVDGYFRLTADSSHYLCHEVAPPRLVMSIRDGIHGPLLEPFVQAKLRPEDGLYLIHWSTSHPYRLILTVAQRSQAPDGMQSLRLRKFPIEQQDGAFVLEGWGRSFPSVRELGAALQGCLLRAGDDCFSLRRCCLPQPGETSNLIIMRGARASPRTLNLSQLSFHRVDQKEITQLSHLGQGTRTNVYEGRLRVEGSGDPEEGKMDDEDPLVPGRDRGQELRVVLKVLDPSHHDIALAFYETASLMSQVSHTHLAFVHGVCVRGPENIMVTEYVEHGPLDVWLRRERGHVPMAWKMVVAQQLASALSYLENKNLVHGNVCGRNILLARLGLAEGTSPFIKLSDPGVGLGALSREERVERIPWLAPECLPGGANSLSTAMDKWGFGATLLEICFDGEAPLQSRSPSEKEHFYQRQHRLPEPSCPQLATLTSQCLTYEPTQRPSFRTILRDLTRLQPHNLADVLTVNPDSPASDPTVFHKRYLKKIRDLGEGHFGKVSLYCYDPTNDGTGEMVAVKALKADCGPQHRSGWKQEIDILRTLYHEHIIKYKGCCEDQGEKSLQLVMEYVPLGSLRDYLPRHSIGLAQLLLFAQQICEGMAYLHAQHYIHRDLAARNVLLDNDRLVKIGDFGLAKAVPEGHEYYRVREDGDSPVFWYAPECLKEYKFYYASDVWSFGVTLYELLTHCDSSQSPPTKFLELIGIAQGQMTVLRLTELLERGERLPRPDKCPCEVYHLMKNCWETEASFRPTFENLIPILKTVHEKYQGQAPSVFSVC

Which IC50 does the source give for `CC(=O)Nc1cc(Nc2cc(C)nc(C(C)(F)F)n2)c(-c2ccc(P(C)(C)=O)nn2)cn1` [Example 917, N-(4-((2-(1,1-difluoroethyl)-6-methylpyrimidin-4-yl)amino)-5-(6-(dimethylphosphoryl)pyridazin-3-yl)pyridin-2-yl)acetamide] here?
Its IC50 is 10 to 100 nM.

How did the IC50 turn out when `CCc1cc(Nc2cc(NC(C)=O)ncc2-c2ccc(CN3C[C@H]4C[C@@H](C3)O4)cn2)nc(C(C)(F)F)n1` [Example 912, N-(5-(((1R,5S)-6-oxa-3-azabicyclo[3.1.1]heptan-3-yl)methyl)-4′-((2-(1,1-difluoroethyl)-6-ethylpyrimidin-4-yl)amino)-[2,3′-bipyridin]-6′-yl)acetamide] was run?
Its IC50 is at most 10 nM.

`CC(=O)Nc1cc(Nc2cc(C)nc(C(C)(F)F)n2)c(-c2ccn(C(F)F)n2)cn1` [Example 811, N-(4-((2-(1,1-difluoroethyl)-6-methylpyrimidin-4-yl)amino)-5-(1-(difluoromethyl)-1H-pyrazol-3-yl)pyridin-2-yl)acetamide] was tested. Which IC50 did it give?
The IC50 was 10 to 100 nM.

same assay, conditions: MSD

Which IC50 does the source give for `COc1cc(COc2cnc(NC(C)=O)cc2Nc2cc(C)nc(C(C)(F)F)n2)ccn1` [Example 114, N-(4-((2-(1,1-difluoroethyl)-6-methylpyrimidin-4-yl)amino)-5-((2-methoxypyridin-4-yl)methoxy)pyridin-2-yl)acetamide] here?
The IC50 was 10 to 100 nM.

For `CC(=O)Nc1cc(Nc2cc(C)nc(C(C)(F)F)n2)c(OCC23CC(C2)C3)cn1` [Example 100, N-(5-(bicyclo[1.1.1]pentan-1-ylmethoxy)-4-((2-(1,1-difluoroethyl)-6-methylpyrimidin-4-yl)amino)pyridin-2-yl)acetamide], which IC50 is on record?
The IC50 was at most 10 nM.

With `COCCOc1cc(Nc2cc(NC(C)=O)ncc2-c2ccn(C)n2)nc(C(C)(F)F)c1` [Example 210, N-(4-((6-(1,1-difluoroethyl)-4-(2-methoxyethoxy)pyridin-2-yl)amino)-5-(1-methyl-1H-pyrazol-3-yl)pyridin-2-yl)acetamide] as the molecule, how does the IC50 read?
The IC50 was at most 10 nM.

Which IC50 does the source give for `COc1ccc(COc2cnc(NC(C)=O)cc2Nc2cc(C)nc(C(C)(F)F)n2)nc1` [Example 127, N-(4-((2-(1,1-difluoroethyl)-6-methylpyrimidin-4-yl)amino)-5-((5-methoxypyridin-2-yl)methoxy)pyridin-2-yl)acetamide] here?
The IC50 was at most 10 nM.

How did the IC50 turn out when `COCc1ccc(-c2cnc(NC(C)=O)cc2Nc2nc(C(C)(F)F)ncc2OC)nc1` [Example 589, N-(4′-((2-(1,1-difluoroethyl)-5-methoxypyrimidin-4-yl)amino)-5-(methoxymethyl)-[2,3′-bipyridin]-6′-yl)acetamide] was run?
Its IC50 is at most 10 nM.

How did the IC50 turn out when `CC(=O)Nc1cc(Nc2cc(C)nc(C(C)(F)F)n2)c(-c2ccc([C@H]3COCCN3C)cn2)cn1` (single isomer, unassigned) [Example 645, (S)-N-(4′-((2-(1,1-difluoroethyl)-6-methylpyrimidin-4-yl)amino)-5-(4-methylmorpholin-3-yl)-[2,3′-bipyridin]-6′-yl)acetamide or (R)-N-(4′-((2-(1,1-difluoroethyl)-6-methylpyrimidin-4-yl)amino)-5-(4-methylmorpholin-3-yl)-[2,3′-bipyridin]-6′-yl)acetamide] was run?
Its IC50 is at most 10 nM.

Which IC50 does the source give for `COc1cnc(C(C)(F)F)nc1Nc1cc(NC(C)=O)ncc1C1CC1` [Example 143, N-(5-cyclopropyl-4-((2-(1,1-difluoroethyl)-5-methoxypyrimidin-4-yl)amino)pyridin-2-yl)acetamide] here?
The IC50 was at least 1000 nM.
